Data on 26 compounds can be found in PubChem BioAssay (NCI).

Among the test systems are HOP-92 NSCLC; HT29 colon; MALME-3M melanoma; MOLT-4 leukemia; NCI-H226 lung; NCI-H460 lung; UACC-257 melanoma; MCF7 breast; MDA-MB-231 breast.
Common to all, as to experiment: DTP human tumour cell line panel, 48 h

Molecules are shown by their SMILES.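 Method: 48-hour compound exposure of cells in 96-well plates, five concentrations, linear interpolation of endpoints. Here, GI50 denotes the concentration required for 50% inhibition of growth. Definition used: TGI = concentration required for complete inhibition of growth.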

By TGI is commonly meant the concentration at which net growth stops. Low values mean greater sensitivity of the cells, high ones lower sensitivity of the cells. As to `Cc1ccc(S(=O)(=O)OCC/C(=C\[Si](C)(C)C)c2ccccc2)cc1`, the TGI in the assay with HOP-92 NSCLC, in the assay with HT29 colon, in the assay on MALME-3M melanoma, with MOLT-4 leukemia, with NCI-H226 lung and with NCI-H460 lung was greater than 100 µM throughout. The TGI with UACC-257 melanoma is greater than 100 µM.
Take `CCc1cccc(C)c1NC(=O)CCc1nc(=S)[nH][nH]1`: the TGI in the assay with HOP-92 NSCLC, in the assay with HT29 colon, with MALME-3M melanoma, in the assay on MOLT-4 leukemia, in the assay with NCI-H226 lung and with NCI-H460 lung was greater than 100 µM throughout. Further, in the assay on UACC-257 melanoma, the total growth inhibition concentration (TGI) was greater than 100 µM.
On to `COc1nc2c(c(O)c(C)c(=O)n2OC2OCC(OC(C)=O)C(OC(C)=O)C2OC(C)=O)c(=O)n1C` (configuration not stated), for which the TGI with HT29 colon, with MOLT-4 leukemia, with NCI-H226 lung and in the assay with NCI-H460 lung was greater than 100 µM each time.
On to `O=c1/c(=C/c2ccccc2[N+](=O)[O-])sc2nnc(-c3cccnc3)n12`, for which the TGI in the assay with HOP-92 NSCLC, with HT29 colon, in the assay with MALME-3M melanoma, with MOLT-4 leukemia, in the assay with NCI-H226 lung and in the assay on NCI-H460 lung was greater than 100 µM throughout. Besides, the TGI in the assay with UACC-257 melanoma is greater than 100 µM.
For the compound `O=C(Nc1ccc(N=C=S)cc1Cl)c1cc(Br)cc(Br)c1O`, the TGI was 56 µM in the assay on HOP-92 NSCLC; 38 µM in the assay with HT29 colon; greater than 100 µM with MALME-3M melanoma; greater than 100 µM in the assay on MCF7 breast; 46.2 µM in the assay on MDA-MB-231 breast; 69.4 µM with MOLT-4 leukemia. Besides, the total growth inhibition concentration (TGI) in the assay with NCI-H226 lung was 41.5 µM; with NCI-H460 lung it was greater than 100 µM; in the assay with UACC-257 melanoma, 48.9 µM.
In the case of `O=C(NC12CC3CCC1CC(C3)C2)[C@@H]1CCCN1C(=O)OCc1ccccc1` (some centres not stated), the concentration for total growth inhibition (TGI) with HOP-92 NSCLC is 71.5 µM; in the assay with HT29 colon it was greater than 100 µM; with MALME-3M melanoma it was greater than 100 µM; in the assay with MOLT-4 leukemia, greater than 100 µM; in the assay on NCI-H226 lung, greater than 100 µM; with UACC-257 melanoma it was greater than 100 µM.
Take `Nc1ncc(Cc2ccc3c(c2)OCO3)c(N)n1`: the TGI in the assay with HOP-92 NSCLC, in the assay on HT29 colon, in the assay with MALME-3M melanoma, in the assay on MCF7 breast, with MDA-MB-231 breast and in the assay on MOLT-4 leukemia was greater than 100 µM throughout. Further, the TGI in the assay with NCI-H226 lung, in the assay on NCI-H460 lung and in the assay with UACC-257 melanoma was greater than 100 µM throughout.
With `COC(=O)CCC(NC(=S)N/N=C/c1cccs1)C(=O)OC` (configuration not stated), the TGI with HOP-92 NSCLC, with HT29 colon, in the assay with MALME-3M melanoma, with NCI-H226 lung, in the assay with NCI-H460 lung and in the assay on UACC-257 melanoma was greater than 100 µM in each case.
For `O=C(NC1C(=O)NNC1c1cccc([N+](=O)[O-])c1)c1ccccc1` (configuration not stated), the TGI in the assay on HOP-92 NSCLC, in the assay on HT29 colon, in the assay on MALME-3M melanoma, in the assay with MOLT-4 leukemia, in the assay on NCI-H226 lung and in the assay on NCI-H460 lung was greater than 100 µM each time. In the assay on UACC-257 melanoma, this compound returned a TGI greater than 100 µM.
On to `O=C1NC(=O)c2c1n(Cc1ccccc1)c(=O)n2Cc1ccccc1`, for which the TGI in the assay on HOP-92 NSCLC, in the assay with HT29 colon, in the assay on MALME-3M melanoma, with MOLT-4 leukemia, in the assay with NCI-H226 lung and in the assay on NCI-H460 lung was greater than 100 µM throughout. In the assay on UACC-257 melanoma, this compound had a TGI greater than 100 µM.
Turning to `CCOC(=O)c1nc(C)oc1C(F)(F)F`, the total growth inhibition concentration (TGI) in the assay on HOP-92 NSCLC, with HT29 colon, with MALME-3M melanoma, with MOLT-4 leukemia, in the assay on NCI-H226 lung and with NCI-H460 lung was greater than 100 µM throughout. This compound had a TGI in the assay on UACC-257 melanoma greater than 100 µM.
`C[C@]12Cc3cn[nH]c3C(=O)C1CC[C@@H]1C2CC[C@@]2(C)C1CC[C@@H]2O` (some centres not stated): the TGI in the assay on HOP-92 NSCLC, in the assay on HT29 colon, with MALME-3M melanoma, in the assay on MOLT-4 leukemia, with NCI-H226 lung and in the assay with NCI-H460 lung was greater than 100 µM in each case. For the same compound, the TGI with UACC-257 melanoma was greater than 100 µM.
Turning to `O=[N+]([O-])c1ccc(Cl)c2c([N+](=O)[O-])cccc12`, the TGI in the assay with HOP-92 NSCLC, in the assay with HT29 colon, in the assay on MALME-3M melanoma, with MCF7 breast and with MOLT-4 leukemia was greater than 10 µM each time.
With `COc1cc([C@@H]2c3cc4c(cc3[C@@H](NC(=O)c3ccc(C#N)cc3)C3COC(=O)[C@@H]32)OCO4)cc(OC)c1O` (some centres not stated), the total growth inhibition concentration (TGI) in the assay on HOP-92 NSCLC came to 22.9 µM; in the assay on HT29 colon, 4.23 µM; in the assay with MALME-3M melanoma it was 2.59 µM; in the assay on MOLT-4 leukemia, 12.4 µM; in the assay on NCI-H226 lung, 0.508 µM; in the assay on NCI-H460 lung, 1.43 µM. Further, the TGI in the assay with UACC-257 melanoma was 20.1 µM.
For `NNC(=O)C(=O)N/N=C1/CCCC1C(=O)CCC(=O)Nc1ccc(Cl)cc1` (configuration not stated), the TGI with HOP-92 NSCLC, with HT29 colon, in the assay on MALME-3M melanoma, in the assay on MOLT-4 leukemia, with NCI-H226 lung and with NCI-H460 lung was greater than 100 µM each time. In addition, the TGI in the assay on UACC-257 melanoma is greater than 100 µM.
On to `O=C1NC2=C(CCCCC/C2=N\O)C12CCCCCC2`, for which the TGI in the assay with HOP-92 NSCLC, in the assay on HT29 colon, in the assay on MALME-3M melanoma, in the assay on MOLT-4 leukemia, in the assay on NCI-H460 lung and in the assay on UACC-257 melanoma was greater than 100 µM in each case.
Take `O=[N+]([O-])c1cccc(C2=NN(c3ccccc3)C3c4cc(Br)ccc4OCC23)c1` (configuration not stated): the TGI with HOP-92 NSCLC, in the assay on HT29 colon, in the assay on MALME-3M melanoma, in the assay with MOLT-4 leukemia, with NCI-H460 lung and in the assay with UACC-257 melanoma was greater than 100 µM throughout.
Turning to `Cc1nc2ccccc2nc1CC(=O)C(=O)Nc1ccc(Cl)cc1Cl`, the TGI with HOP-92 NSCLC, with MALME-3M melanoma, in the assay with MOLT-4 leukemia, with NCI-H460 lung and with UACC-257 melanoma was greater than 100 µM in each case.
Take `O=C1[C@@H]2C(c3c(Cl)cccc3Cl)=NO[C@@H]2C(=O)N1c1ccc(Cc2ccc(N3C(=O)[C@H]4C(c5c(Cl)cccc5Cl)=NO[C@H]4C3=O)cc2)cc1`: the total growth inhibition concentration (TGI) in the assay with HOP-92 NSCLC, with HT29 colon, with MALME-3M melanoma, with MOLT-4 leukemia, in the assay on NCI-H226 lung and in the assay with NCI-H460 lung was greater than 100 µM throughout. For the same compound, the TGI in the assay with UACC-257 melanoma is greater than 100 µM.
For `Cc1ccc2c(c1)CN1c3ccc(C)cc3CN2C1c1ccccc1O`, the concentration for total growth inhibition (TGI) in the assay with HOP-92 NSCLC, with HT29 colon, in the assay on MALME-3M melanoma, with MOLT-4 leukemia, in the assay with NCI-H226 lung and in the assay on NCI-H460 lung was greater than 100 µM in each case.
One may read the GI50 as the concentration that inhibits growth by half. For `Nc1ncnc2c1N=C(c1ccc3c(c1)OCO3)CC(c1ccc(Cl)cc1)N2` (configuration not stated), the GI50 is 17.2 µM with HT29 colon; 89.1 µM with MALME-3M melanoma; 3.61 µM in the assay on MCF7 breast; 27 µM in the assay on MDA-MB-231 breast; 5.85 µM in the assay with MOLT-4 leukemia; 44.8 µM in the assay with NCI-H226 lung. The GI50 in the assay on NCI-H460 lung was 21.8 µM; in the assay on UACC-257 melanoma it was greater than 100 µM. The TGI is greater than 100 µM in the assay with HT29 colon; greater than 100 µM with MALME-3M melanoma; 45.5 µM in the assay on MCF7 breast; greater than 100 µM with MDA-MB-231 breast; greater than 100 µM in the assay with MOLT-4 leukemia; greater than 100 µM with NCI-H226 lung. The TGI in the assay on NCI-H460 lung and in the assay on UACC-257 melanoma was greater than 100 µM in each case.
As for `N#CC(C(=O)C(=O)Nc1c(Cl)cccc1Cl)c1ccccc1` (configuration not stated), the GI50 in the assay with HOP-92 NSCLC, in the assay with HT29 colon, with MALME-3M melanoma, in the assay on MOLT-4 leukemia, in the assay with NCI-H226 lung and in the assay on NCI-H460 lung was greater than 100 µM throughout. In addition, the TGI in the assay with HOP-92 NSCLC, in the assay on HT29 colon, with MALME-3M melanoma, with MOLT-4 leukemia, in the assay with NCI-H226 lung and with NCI-H460 lung was greater than 100 µM throughout.
As to `Cc1nc(N)nc(CCC(=O)Nc2cccc(C(F)(F)F)c2)c1-c1ccc(Cl)cc1`, the TGI with HOP-92 NSCLC, in the assay with HT29 colon, in the assay with MALME-3M melanoma, in the assay with MOLT-4 leukemia, with NCI-H226 lung and in the assay on NCI-H460 lung was greater than 100 µM each time. Further, in the assay with UACC-257 melanoma, the TGI was greater than 100 µM.
With `O=[N+]([O-])c1ccccc1C1SCc2nc3ccccc3n21` (configuration not stated), the TGI with HOP-92 NSCLC, in the assay on HT29 colon, in the assay with MALME-3M melanoma, in the assay with MOLT-4 leukemia, with NCI-H460 lung and in the assay on UACC-257 melanoma was greater than 100 µM throughout.
As for `COc1cc(Nc2cnc3ccc(C(F)(F)F)cc3n2)cc(OC)c1OC`, the TGI in the assay on HOP-92 NSCLC, in the assay on HT29 colon, in the assay on MALME-3M melanoma, in the assay with MOLT-4 leukemia, with NCI-H226 lung and with NCI-H460 lung was greater than 100 µM in each case. Besides, the TGI in the assay with UACC-257 melanoma is greater than 100 µM.
Consider `COC(=O)C1C(=O)O[C@@H](c2ccc3c(c2)OCO3)C1C(=O)OC` (mixture of isomers), for which the TGI in the assay with HOP-92 NSCLC, in the assay on HT29 colon, in the assay on MALME-3M melanoma, in the assay on MOLT-4 leukemia, in the assay on NCI-H226 lung and in the assay on NCI-H460 lung was greater than 100 µM in each case. Also, the TGI with UACC-257 melanoma was greater than 100 µM.
